Values quoted from earlier work, collected in patent US20100310597A1, “ANTI-OFLOXACIN MONOCLONAL ANTIBODY AND IMMUNOASSAY OF OFLOXACIN USING THE SAME” (SEKISUI MEDICAL CO., LTD, priority 2007, published 2010).

Settings: background statement

C[C@H]1COc2c(N3CCN(C)CC3)c(F)cc3c(=O)c(C(=O)O)cn1c23 [levofloxacin, (−)-(S)-9-fluoro-2,3-dihydro-3-methyl-10-(4-methyl-1-piperazinyl)-7-oxo-7H-pyrido[1,2,3-de][1,4]benzoxazine-6-carboxylic acid]
Antibiotic activity relative to ofloxacin: approximately twice
